Converted amounts (≈) assume the structure as drawn.

The test system of test [1] is Staphylococcus aureus. Nature of the test: Antibacterial activity against Staphylococcus aureus by disc diffusion method. The test is classed as functional.
Test [2] relates to Salmonella typhi. Description: Antibacterial activity against Salmonella typhi by disc diffusion method. The test is classed as functional, Salmonella enterica subsp. enterica serovar Typhi. The following applies: Salmonella enterica.
For test [3], the system named is Salmonella typhi. Description: Ratio of norfloxacin MIC to compound MIC against Salmonella typhi. The test is classed as functional, Salmonella enterica subsp. enterica serovar Typhi.
Test [4] concerns Escherichia coli. Description: Antibacterial activity against enterotoxigenic Escherichia coli by disc diffusion method. The test is classed as functional.
For test [5], the system named is Pseudomonas aeruginosa. Description: Antibacterial activity against Pseudomonas aeruginosa by disc diffusion method. Type of test: functional.

On to `CCn1cc(C(=O)NNS(=O)(=O)c2ccc(C)cc2)c(=O)c2cc(Cl)ccc21`, for which the MIC in test [1], in test [2], in test [4] and in test [5] was 0.0625 µg/mL (≈ 0.149 µM) in each case. Also, in test [3], the Ratio is reported as 4.
For `CCn1cc(C(=O)NNS(=O)(=O)c2ccc(C)cc2)c(=O)c2cc(F)c(Cl)cc21`, the MIC in test [1], in test [2], in test [4] and in test [5] was 0.0625 µg/mL (≈ 0.143 µM) each time. Further, the Ratio in test [3] is on record as 4.
For `CCn1cc(C(=O)NN)c(=O)c2ccc(Cl)cc21`, the MIC in test [1], in test [2], in test [4] and in test [5] was 0.0625 µg/mL (≈ 0.235 µM) throughout. For the same compound, the Ratio in test [3] is reported as 4.
As to `CCn1cc(C(=O)NN)c(=O)c2cc(F)ccc21`, the MIC in test [1] was determined as 0.0625 µg/mL (≈ 0.251 µM); in test [2] it was 0.0625 µg/mL (≈ 0.251 µM); in test [4], 0.125 µg/mL (≈ 0.502 µM); in test [5] it was 0.0625 µg/mL (≈ 0.251 µM). In addition, in test [3], the Ratio worked out at 4.
As for `CCn1cc(C(=O)NNS(=O)(=O)c2ccc(C)cc2)c(=O)c2ccccc21`, the MIC was found to be 0.0625 µg/mL (≈ 0.162 µM) in test [1], 0.0625 µg/mL (≈ 0.162 µM) in test [2], 0.125 µg/mL (≈ 0.324 µM) in test [4] and 0.0625 µg/mL (≈ 0.162 µM) in test [5]. Also, the Ratio in test [3] was 4.
Take `CCn1cc(C(=O)NNS(=O)(=O)c2ccc(C)cc2)c(=O)c2cc(F)ccc21`: the MIC in test [1], in test [2], in test [4] and in test [5] was 0.0625 µg/mL (≈ 0.155 µM) in each case. In addition, the Ratio in test [3] is 4.
As for `O=C(O)c1cn(C2CC2)c2cc(N3CCNCC3)c(F)cc2c1=O` [CIPROFLOXACIN], the MIC in test [1], in test [2], in test [4] and in test [5] was 0.0625 µg/mL (≈ 0.189 µM) throughout.
Consider `CCn1cc(C(=O)NN)c(=O)c2cc(Cl)ccc21`, for which the MIC was 0.0625 µg/mL (≈ 0.235 µM) in test [1], 0.0625 µg/mL (≈ 0.235 µM) in test [2], 0.25 µg/mL (≈ 0.941 µM) in test [4] and 0.0625 µg/mL (≈ 0.235 µM) in test [5]. The Ratio in test [3] turned out to be 4.
On to `CCn1cc(C(=O)NN)c(=O)c2ccccc21`, for which the MIC in test [1], in test [2], in test [4] and in test [5] was 0.0625 µg/mL (≈ 0.27 µM) throughout. Also, the Ratio in test [3] amounted to 4.
Turning to `CCn1cc(C(=O)NN)c(=O)c2cc(F)c(Cl)cc21`, the MIC in test [1], in test [2], in test [4] and in test [5] was 0.0625 µg/mL (≈ 0.22 µM) throughout. The Ratio in test [3] was 4.
Turning to `CCn1cc(C(=O)NNS(=O)(=O)c2ccc(C)cc2)c(=O)c2ccc(Cl)cc21`, the MIC in test [1] amounted to 0.0625 µg/mL (≈ 0.149 µM); in test [2] it was 0.125 µg/mL (≈ 0.298 µM); in test [4] it was 0.0625 µg/mL (≈ 0.149 µM); in test [5] it was 0.0625 µg/mL (≈ 0.149 µM). For the same compound, in test [3], the Ratio came out at 2.
As for `CCn1cc(C(=O)O)c(=O)c2cc(F)c(N3CCNCC3)cc21` [NORFLOXACIN], the MIC in test [1] stood at 0.0625 µg/mL (≈ 0.196 µM); in test [2] it was 0.25 µg/mL (≈ 0.783 µM); in test [4], 0.0625 µg/mL (≈ 0.196 µM); in test [5], 0.0625 µg/mL (≈ 0.196 µM).

Values taken from ChEMBL document CHEMBL2417444, “Synthesis and study of 1-ethyl-3-carbohydrazide and 3-[1-oxo-2-hydrazino-3-{p-toluenesulfon}]quinolone derivatives against bacterial infections” (2013).
